Read-outs that look alike come from different tables or passages of the source.
Key:
[1] = target: CK1ε (Homo sapiens, UniProt P49674); test: CK1ε kinase assay (Caliper LabChip electrophoretic separation of fluoresceinated peptide substrate and product); assay type: biochemical; conditions: 200 pM CK1ε, 50 μM ATP, 1.5 μM peptide, 22 hours at room temperature
Procedure: (§1) CK1ε and CK1δ Kinase Assays
(§2) The kinase assay was performed in V-bottom 384-well plates. […] The reaction was incubated at room temperature for 22 hours and terminated by adding 45 μl of 35 mM EDTA to each sample. The reaction mixture was analyzed on the Caliper LABCHIP®3000 (Caliper, Hopkinton, Mass.) by electrophoretic separation of the unphosphorylated substrate and phosphorylated product. […] Compounds were dissolved at 10 mM in dimethylsulfoxide (DMSO) and evaluated at eleven concentrations. IC50 values were derived by non-linear regression analysis.

[2] = target: CK1δ (Homo sapiens, UniProt P48730); test: CK1δ kinase assay (Caliper LabChip electrophoretic separation of fluoresceinated peptide substrate and product); assay type: biochemical; conditions: 200 pM CK1δ, 50 μM ATP, 1.5 μM peptide, 22 hours at room temperature
Procedure: as §1, §2

CK1ε, sequence (P49674 whole entry): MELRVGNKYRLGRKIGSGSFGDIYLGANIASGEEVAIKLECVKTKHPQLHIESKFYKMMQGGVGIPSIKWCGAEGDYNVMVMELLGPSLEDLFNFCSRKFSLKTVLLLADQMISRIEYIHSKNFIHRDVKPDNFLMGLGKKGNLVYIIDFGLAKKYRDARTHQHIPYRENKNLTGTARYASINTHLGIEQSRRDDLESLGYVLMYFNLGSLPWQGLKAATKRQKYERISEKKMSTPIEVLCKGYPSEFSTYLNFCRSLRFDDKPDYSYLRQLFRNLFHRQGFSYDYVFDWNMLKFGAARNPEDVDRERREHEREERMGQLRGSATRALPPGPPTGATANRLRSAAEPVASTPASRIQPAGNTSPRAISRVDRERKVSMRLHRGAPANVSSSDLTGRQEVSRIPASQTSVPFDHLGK
CK1δ, sequence (P48730 whole entry): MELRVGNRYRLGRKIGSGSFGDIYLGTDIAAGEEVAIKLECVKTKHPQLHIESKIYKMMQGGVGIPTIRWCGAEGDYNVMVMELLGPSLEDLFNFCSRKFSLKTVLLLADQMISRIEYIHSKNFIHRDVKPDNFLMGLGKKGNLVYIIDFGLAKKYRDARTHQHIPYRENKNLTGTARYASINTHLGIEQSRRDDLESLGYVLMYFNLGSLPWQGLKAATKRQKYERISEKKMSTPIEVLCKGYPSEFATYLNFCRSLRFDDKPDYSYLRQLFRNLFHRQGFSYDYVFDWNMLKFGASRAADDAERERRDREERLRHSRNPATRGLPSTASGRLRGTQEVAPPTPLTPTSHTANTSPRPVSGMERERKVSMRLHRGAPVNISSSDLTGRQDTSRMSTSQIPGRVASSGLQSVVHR

Compound | IC50 ([1]; read-out: CK1ε IC50 range) | IC50 ([2]; read-out: CK1δ IC50 range) | IC50 ([1]; read-out: CK1ε) | IC50 ([2]; read-out: CK1δ)
2-(3-Chloro-4-fluorophenyl)-N^5-(3,3-difluorocyclopentyl)-6,7-dihydropyrazolo[1,5-a]pyrazine-3,5(4H)-dicarboxamide [Compound 332] | 0.01 to 10 nM | 0.01 to 10 nM | – | –
NC(=O)c1c(-c2cccc(Cl)c2)nn2c1CN(C(=O)NC1CC(COC(F)F)C1)CC2 (single isomer, unassigned) [Compound 244, 2-(3-Chlorophenyl)-N^5-(3-((difluoromethoxy)methyl)cyclobutyl)-6,7-dihydropyrazolo[1,5-a]pyrazine-3,5(4H)-dicarboxamide] | 0.01 to 10 nM | 0.01 to 10 nM | – | –
NC(=O)c1c(-c2cccc(Cl)c2)nn2c1CN(C(=O)NC1CC(COC(F)F)C1)CC2 (single isomer, unassigned) [Compound 245, 2-(3-Chlorophenyl)-N^5-(3-((difluoromethoxy)methyl)cyclobutyl)-6,7-dihydropyrazolo[1,5-a]pyrazine-3,5(4H)-dicarboxamide] | 0.01 to 10 nM | 0.01 to 10 nM | – | –
CC1CC(NC(=O)N2CCn3nc(-c4ccc(F)c(Cl)c4)c(C(N)=O)c3C2)C1 (single isomer, unassigned) [Compound 246, 2-(3-Chloro-4-fluorophenyl)-N^5-(3-methylcyclobutyl)-6,7-dihydropyrazolo[1,5-a]pyrazine-3,5(4H)-dicarboxamide] | 0.01 to 10 nM | 0.01 to 10 nM | – | –
CC1CC(NC(=O)N2CCn3nc(-c4ccc(F)c(Cl)c4)c(C(N)=O)c3C2)C1 (single isomer, unassigned) [Compound 247, 2-(3-Chloro-4-fluorophenyl)-N^5-(3-methylcyclobutyl)-6,7-dihydropyrazolo[1,5-a]pyrazine-3,5(4H)-dicarboxamide] | 0.01 to 10 nM | 0.01 to 10 nM | – | –
CC1CC(NC(=O)N2CCn3nc(-c4ccc(Cl)c(Cl)c4)c(C(N)=O)c3C2)C1 (single isomer, unassigned) [Compound 248, 2-(3,4-Dichlorophenyl)-N^5-(3-methylcyclobutyl)-6,7-dihydropyrazolo[1,5-a]pyrazine-3,5(4H)-dicarboxamide] | 0.01 to 10 nM | 0.01 to 10 nM | 0.4 nM | 1.5 nM
CC1CC(NC(=O)N2CCn3nc(-c4ccc(Cl)c(Cl)c4)c(C(N)=O)c3C2)C1 (single isomer, unassigned) [Compound 249, 2-(3,4-Dichlorophenyl)-N^5-(3-methylcyclobutyl)-6,7-dihydropyrazolo[1,5-a]pyrazine-3,5(4H)-dicarboxamide] | 0.01 to 10 nM | 0.01 to 10 nM | – | –
CC1CC(NC(=O)N2CCn3nc(-c4cccc(Cl)c4)c(C(N)=O)c3C2)C1 (single isomer, unassigned) [Compound 250, 2-(3-Chlorophenyl)-N^5-(3-methylcyclobutyl)-6,7-dihydropyrazolo[1,5-a]pyrazine-3,5(4H)-dicarboxamide] | 0.01 to 10 nM | 0.01 to 10 nM | – | –
CC1CC(NC(=O)N2CCn3nc(-c4cccc(Cl)c4)c(C(N)=O)c3C2)C1 (single isomer, unassigned) [Compound 251, 2-(3-Chlorophenyl)-N^5-(3-methylcyclobutyl)-6,7-dihydropyrazolo[1,5-a]pyrazine-3,5(4H)-dicarboxamide] | 0.01 to 10 nM | 0.01 to 10 nM | – | –
CC1(NC(=O)N2CCn3nc(-c4ccc(F)c(Cl)c4)c(C(N)=O)c3C2)CC(C(F)F)C1 (single isomer, unassigned) [Compound 258, 2-(3-Chloro-4-fluorophenyl)-N^5-(3-(difluoromethyl)-1-methylcyclobutyl)-6,7-dihydropyrazolo[1,5-a]pyrazine-3,5(4H)-dicarboxamide] | 0.01 to 10 nM | 0.01 to 10 nM | 0.7 nM | 0.5 nM
CC1(NC(=O)N2CCn3nc(-c4ccc(F)c(Cl)c4)c(C(N)=O)c3C2)CC(C(F)F)C1 (single isomer, unassigned) [Compound 259, 2-(3-Chloro-4-fluorophenyl)-N^5-(3-(difluoromethyl)-1-methylcyclobutyl)-6,7-dihydropyrazolo[1,5-a]pyrazine-3,5(4H)-dicarboxamide] | 0.01 to 10 nM | 0.01 to 10 nM | – | –
NC(=O)c1c(-c2ccc(F)c(Cl)c2)nn2c1CN(C(=O)NC1CC3(C1)CC3(F)F)CC2 (single isomer, unassigned) [Compound 320, 2-(3-Chloro-4-fluorophenyl)-N^5-(1,1-difluorospiro[2.3]hexan-5-yl)-6,7-dihydropyrazolo[1,5-a]pyrazine-3,5(4H)-dicarboxamide] | 0.01 to 10 nM | 0.01 to 10 nM | – | –
NC(=O)c1c(-c2ccc(F)c(Cl)c2)nn2c1CN(C(=O)NC1CC3(C1)CC3(F)F)CC2 (single isomer, unassigned) [Compound 321, 2-(3-Chloro-4-fluorophenyl)-N^5-(1,1-difluorospiro[2.3]hexan-5-yl)-6,7-dihydropyrazolo[1,5-a]pyrazine-3,5(4H)-dicarboxamide] | 0.01 to 10 nM | 0.01 to 10 nM | – | –
NC(=O)c1c(-c2cccc(Cl)c2)nn2c1CN(C(=O)NC1CC3(C1)CC3(F)F)CC2 (single isomer, unassigned) [Compound 322, 2-(3-Chlorophenyl)-N^5-(1,1-difluorospiro[2.3]hexan-5-yl)-6,7-dihydropyrazolo[1,5-a]pyrazine-3,5(4H)-dicarboxamide] | 0.01 to 10 nM | 0.01 to 10 nM | – | –
NC(=O)c1c(-c2cccc(Cl)c2)nn2c1CN(C(=O)NC1CC3(C1)CC3(F)F)CC2 (single isomer, unassigned) [Compound 323, 2-(3-Chlorophenyl)-N^5-(1,1-difluorospiro[2.3]hexan-5-yl)-6,7-dihydropyrazolo[1,5-a]pyrazine-3,5(4H)-dicarboxamide] | 0.01 to 10 nM | 0.01 to 10 nM | – | –
NC(=O)c1c(-c2ccc(Cl)c(Cl)c2)nn2c1CN(C(=O)NC1CC3(C1)CC3(F)F)CC2 (single isomer, unassigned) [Compound 324, 2-(3,4-Dichlorophenyl)-N^5-(1,1-difluorospiro[2.3]hexan-5-yl)-6,7-dihydropyrazolo[1,5-a]pyrazine-3,5(4H)-dicarboxamide] | 0.01 to 10 nM | 0.01 to 10 nM | – | –
NC(=O)c1c(-c2ccc(Cl)c(Cl)c2)nn2c1CN(C(=O)NC1CC3(C1)CC3(F)F)CC2 (single isomer, unassigned) [Compound 325, 2-(3,4-Dichlorophenyl)-N^5-(1,1-difluorospiro[2.3]hexan-5-yl)-6,7-dihydropyrazolo[1,5-a]pyrazine-3,5(4H)-dicarboxamide] | 0.01 to 10 nM | 0.01 to 10 nM | – | –
CC1(NC(=O)N2CCn3nc(-c4ccc(F)c(Cl)c4)c(C(N)=O)c3C2)CC2(C1)CC2(F)F (single isomer, unassigned) [Compound 326, 2-(3-Chloro-4-fluorophenyl)-N5-(1,1-difluoro-5-methylspiro[2.3]hexan-5-yl)-6,7-dihydropyrazolo[1,5-a]pyrazine-3,5(4H)-dicarboxamide] | 0.01 to 10 nM | 0.01 to 10 nM | – | –
CC1(NC(=O)N2CCn3nc(-c4ccc(F)c(Cl)c4)c(C(N)=O)c3C2)CC2(C1)CC2(F)F (single isomer, unassigned) [Compound 327, 2-(3-Chloro-4-fluorophenyl)-N5-(1,1-difluoro-5-methylspiro[2.3]hexan-5-yl)-6,7-dihydropyrazolo[1,5-a]pyrazine-3,5(4H)-dicarboxamide] | 0.01 to 10 nM | 0.01 to 10 nM | – | –
CC1(NC(=O)N2CCn3nc(-c4ccc(Cl)c(Cl)c4)c(C(N)=O)c3C2)CC2(C1)CC2(F)F (single isomer, unassigned) [Compound 328, 2-(3,4-Dichlorophenyl)-N^5-(1,1-difluoro-5-methylspiro[2.3]hexan-5-yl)-6,7-dihydropyrazolo[1,5-a]pyrazine-3,5(4H)-dicarboxamide] | 0.01 to 10 nM | 0.01 to 10 nM | – | –
CC1(NC(=O)N2CCn3nc(-c4ccc(Cl)c(Cl)c4)c(C(N)=O)c3C2)CC2(C1)CC2(F)F (single isomer, unassigned) [Compound 329, 2-(3,4-Dichlorophenyl)-N^5-(1,1-difluoro-5-methylspiro[2.3]hexan-5-yl)-6,7-dihydropyrazolo[1,5-a]pyrazine-3,5(4H)-dicarboxamide] | 0.01 to 10 nM | 0.01 to 10 nM | – | –
COc1cc(F)cc(-c2nn3c(c2C(N)=O)CN(C(=O)NC(C)(C)C)CC3)c1 [Compound 137, N^5-(tert-Butyl)-2-(3-fluoro-5-methoxyphenyl)-6,7-dihydropyrazolo[1,5-a] pyrazine-3,5(4H)-dicarboxamide] | 10 to 100 nM | – | – | –
CSc1cccc(-c2nn3c(c2C(N)=O)CN(C(=O)NC(C)(C)C)CC3)c1 [Compound 150, N^5-(tert-Butyl)-2-(3-(methylthio)phenyl)-6,7-dihydropyrazolo[1,5-a] pyrazine-3,5(4H)-dicarboxamide] | 10 to 100 nM | – | – | –
CC(C)(C)NC(=O)N1Cc2c(C(N)=O)c(-c3ccc(F)c(Cl)c3)nn2CC12CC2 [Compound 350, N^5′-(tert-Butyl)-2′-(3-chloro-4-fluorophenyl)-4′H-spiro[cyclopropane-1,6′-pyrazolo[1,5-a]pyrazine]-3′,5′(7′H)-dicarboxamide] | 100 to 2000 nM | – | – | –
N#Cc1ccc(NC(=O)N2Cc3c(C(N)=O)c(-c4cccc(Cl)c4)nn3C(CF)C2)cc1 (stereo not drawn) [Compound A4, 2-(3-Chlorophenyl)-N^5-(4-cyanophenyl)-7-(fluoromethyl)-6,7-dihydropyrazolo[1,5-a]pyrazine-3,5(4H)-dicarboxamide] | 0.01 to 10 nM | – | – | –
